{
  "source": "patent US11434267B2",
  "about": "“Peptides having reduced toxicity that stimulate cholesterol efflux” (The Regents of the University of California, priority 2013, dated 2022)",
  "note": "Non-standard residues stand in square brackets, D forms with d. No end group written: not given here. Cit = NC(=O)NCCC[C@H](N)C(=O)O",
  "data": [
    {"biological_target": "T1, ABCA1 (Mus musculus, UniProt P41233)", "T1 construct": "treated (18 h) with a cAMP analog to induce ABCA1 protein expression; endogenous in cells; host or cells: J774 macrophages", "T1 sequence (P41233 whole entry)": "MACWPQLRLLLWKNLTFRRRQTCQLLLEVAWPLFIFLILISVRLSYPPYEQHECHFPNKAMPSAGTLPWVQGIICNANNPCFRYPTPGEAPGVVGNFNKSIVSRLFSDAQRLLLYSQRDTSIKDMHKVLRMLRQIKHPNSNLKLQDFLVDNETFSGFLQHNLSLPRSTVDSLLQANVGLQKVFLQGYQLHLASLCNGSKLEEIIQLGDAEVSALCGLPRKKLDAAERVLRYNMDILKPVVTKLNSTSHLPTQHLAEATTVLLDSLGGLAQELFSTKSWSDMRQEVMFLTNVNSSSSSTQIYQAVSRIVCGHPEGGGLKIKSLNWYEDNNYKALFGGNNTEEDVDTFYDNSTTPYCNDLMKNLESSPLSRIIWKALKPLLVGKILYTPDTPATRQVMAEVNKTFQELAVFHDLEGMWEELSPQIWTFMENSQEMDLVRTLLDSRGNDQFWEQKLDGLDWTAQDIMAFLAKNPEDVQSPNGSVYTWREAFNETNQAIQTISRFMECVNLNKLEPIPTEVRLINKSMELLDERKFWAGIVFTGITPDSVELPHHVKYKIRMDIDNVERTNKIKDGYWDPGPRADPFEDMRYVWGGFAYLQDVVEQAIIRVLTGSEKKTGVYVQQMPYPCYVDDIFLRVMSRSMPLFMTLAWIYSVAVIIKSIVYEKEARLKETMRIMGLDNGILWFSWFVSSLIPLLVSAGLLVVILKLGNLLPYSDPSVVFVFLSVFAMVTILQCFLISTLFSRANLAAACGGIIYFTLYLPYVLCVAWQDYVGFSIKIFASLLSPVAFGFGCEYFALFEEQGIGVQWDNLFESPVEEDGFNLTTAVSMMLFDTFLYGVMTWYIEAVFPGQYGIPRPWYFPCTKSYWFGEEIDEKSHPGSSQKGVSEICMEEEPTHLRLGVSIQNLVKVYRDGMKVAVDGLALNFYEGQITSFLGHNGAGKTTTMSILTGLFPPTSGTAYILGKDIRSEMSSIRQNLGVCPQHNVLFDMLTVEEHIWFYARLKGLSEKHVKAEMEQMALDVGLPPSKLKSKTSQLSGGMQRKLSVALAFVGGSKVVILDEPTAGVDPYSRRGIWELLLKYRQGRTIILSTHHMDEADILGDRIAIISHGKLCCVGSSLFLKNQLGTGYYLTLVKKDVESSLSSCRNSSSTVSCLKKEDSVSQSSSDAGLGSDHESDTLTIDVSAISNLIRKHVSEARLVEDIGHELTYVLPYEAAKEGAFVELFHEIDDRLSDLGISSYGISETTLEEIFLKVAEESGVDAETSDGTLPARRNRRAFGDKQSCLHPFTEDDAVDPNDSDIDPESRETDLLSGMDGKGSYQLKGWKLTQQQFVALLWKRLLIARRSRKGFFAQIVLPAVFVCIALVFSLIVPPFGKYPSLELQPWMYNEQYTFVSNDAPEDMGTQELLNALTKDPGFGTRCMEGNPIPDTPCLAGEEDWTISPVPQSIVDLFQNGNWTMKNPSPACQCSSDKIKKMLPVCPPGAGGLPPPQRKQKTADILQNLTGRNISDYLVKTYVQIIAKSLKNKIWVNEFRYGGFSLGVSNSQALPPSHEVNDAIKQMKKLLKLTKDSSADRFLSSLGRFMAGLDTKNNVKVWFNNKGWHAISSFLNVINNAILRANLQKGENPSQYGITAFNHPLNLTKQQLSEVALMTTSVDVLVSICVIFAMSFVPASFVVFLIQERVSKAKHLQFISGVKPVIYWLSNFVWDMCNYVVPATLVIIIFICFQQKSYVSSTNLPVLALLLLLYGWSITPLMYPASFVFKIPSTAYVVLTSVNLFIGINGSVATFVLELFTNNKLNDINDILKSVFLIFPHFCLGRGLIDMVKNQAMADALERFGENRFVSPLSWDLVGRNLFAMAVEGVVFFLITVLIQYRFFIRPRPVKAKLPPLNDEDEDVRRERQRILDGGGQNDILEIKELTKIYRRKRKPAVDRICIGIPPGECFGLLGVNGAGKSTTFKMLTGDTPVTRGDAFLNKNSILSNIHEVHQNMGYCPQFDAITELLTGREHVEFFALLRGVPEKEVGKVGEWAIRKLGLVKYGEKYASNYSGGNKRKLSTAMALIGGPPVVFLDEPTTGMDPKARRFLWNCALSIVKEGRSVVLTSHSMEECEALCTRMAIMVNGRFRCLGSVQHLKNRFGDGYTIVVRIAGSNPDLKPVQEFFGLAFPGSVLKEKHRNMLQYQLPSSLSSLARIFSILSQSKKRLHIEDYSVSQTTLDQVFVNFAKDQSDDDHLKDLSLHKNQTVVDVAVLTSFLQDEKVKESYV", "test": "ABCA1 protein stabilization in J774 macrophages (Western blot)", "assay_type": "cell-based", "settings": "J774 after cAMP, 6 h chase", "protocol": "In some embodiments, the stabilization of ABCA is measured by direct measurement of ABCA (e.g., ABCA protein, or nucleic acid) using a cell based assay. Cell based assays can be performed in any cells in which ABCA is expressed (e.g., J774 macrophages), including cells which have been transfected with ABCA (e.g. HeLa cells). Any cell type can be used. For example, J774 macrophages can be used to assess relative ABCA1 protein levels in the presence and absence of polypeptides of the invention. The cells are first contacted with a compound that will induce ABCA (e.g., cAMP or a cAMP analogue such as, 8-bromo-cAMP) to upregulate ABCA (e.g., ABCA1) expression, then exposed to […] polypeptides of the invention in the absence of the cAMP stimulus to evaluate whether ABCA1 protein was stabilized or degraded. Relative levels of ABCA1 protein can be assessed using any means known in the art including, e.g., immunoblot analysis of cell membranes (Oram et al., J. Biol. Chem., 278:52379-52385 (2003)) or hybridization of nucleic acid probes to ABCA mRNA.\n(FIG. 29). J774 macrophages were used for experiments. Panel A—Cells were labeled (48 h) with 3H cholesterol and treated with (right bars) and without (left bars) a cAMP analog to modulate ABCA1 expression. […]", "values": [
      {"substance": "apoA-I: full-length native apolipoprotein A-I, lipid-free", "ABCA1 protein level (stabilization)": "maintained at high-levels"}
    ]},
    {"system": "C57Bl/6 mice", "test": "Glucose tolerance test in fasted C57Bl/6 mice after single IP peptide injection", "assay_type": "in vivo, mouse", "settings": "single IP 300 mg/kg, 2 g/kg glucose IP", "protocol": "Peptide may additionally be screened for the ability to lower glucose using methods illustrated in the EXAMPLES section, e.g., Example 31. For example, the ability to lower glucose can be evaluated using ing animal models, such as mice or rats. Mice, e.g., C57Bl/6 mice, fed a normal lab chow diet are injected IP with a peptide that is undergoing evaluation, e.g., at a does of 300 mg/kg, and the glucose levels in the blood are measured at a time period, e.g. 6 hours, following injection and compared to the levels of blood glucose in a control animal that received PBS. Alternatively, peptides may be screened for the ability to lower glucose as illustrated in Example 36. For example, 300 mg/kg peptide injected IP into to fasted animals and 3 h thereafter a glucose tolerance test is performed by injecting 2 g/kg glucose during which the glucose concentration is followed for 120 minutes. Peptides that have glucose lowering activity show statistically significant lowered glucose relative to controls. Typically, peptides lower glucose by at least 5%, often at least 10% or greater, relative to controls. Peptides may also be evaluated for glucose-lowering activity in animal models of obesity, e.g., DIO mice. Further, peptides may be evaluated for the ability to improve sensitivity to insulin, e.g., as described in Example 31 of the EXAMPLES section.\nThis example illustrates that CS6253 and T6991-2 lower blood glucose concentrations upon glucose challenge in C57Bl/6 mice (FIG. 51). Fasted male C57Bl/6 mice on chow diet received a single intraperitonel (IP) injection of either vehicle alone or 300 mg/kg of lipid-free peptide, as described for safety studies in FIG. 5. Following treatment, a glucose tolerance test was performed via IP injection of 2 g/kg glucose. Blood was collected from the tail vein at the indicated times and blood glucose measured using a glucometer. Panels A and B— Blood glucose concentrations expressed as mass values over time following glucose challenge, with corresponding area under the curve, respectively. (Bar graph, panel B, bars from left to right are PBS, CS6253, T699102, 2, 4, 5, 6, and 9, respectively) Values are means±SD, n=4 mice per group.", "values": [
      {"substance": "T8212-9: CS6253 analog with combination of leucine and isoleucine residues (L→I) (EV[Cit]SKIEEWIAAI[Cit]EIAEEIIARLKS) [Peptide T8212-9]", "blood glucose upon glucose challenge": "poorly active in lowering blood glucose responses"},
      {"substance": "T8212-6: CS6253 analog with combination of leucine and isoleucine residues (L→I) (EV[Cit]SKIEEWLAAI[Cit]EIAEELLARLKS) [Peptide T8212-6]", "blood glucose upon glucose challenge": "poorly active in lowering blood glucose responses"},
      {"substance": "T8212-4: CS6253 analog with combination of leucine and isoleucine residues (L→I) (EV[Cit]SKLEEWIAAL[Cit]ELAEEILARLKS) [Peptide T8212-4]", "blood glucose upon glucose challenge": "poorly active in lowering blood glucose responses"},
      {"substance": "T8212-2: CS6253 analog with combination of leucine and isoleucine residues (L→I) (EV[Cit]SKLEEWLAAI[Cit]ELAEELLARLKS) [Peptide T8212-2]", "blood glucose upon glucose challenge": "poorly active in lowering blood glucose responses"},
      {"substance": "T8212-5: CS6253 analog with combination of leucine and isoleucine residues (L→I) (EV[Cit]SKIEEWIAAL[Cit]ELAEEILARLKS) [Peptide T8212-5]", "blood glucose upon glucose challenge": "poorly active in lowering blood glucose responses"}
    ]}
  ]
}
